Measured values: US11292812B2, “3′3′-cyclic dinucleotides” (Institute of Organic Chemistry and Biochemistry, ASCR, V.V.I, priority 2018, dated 2022)

Columns and labels:
AQ STING (G230A-R293Q) = molecular target: T1, AQ STING (G230A-R293Q) (Homo sapiens, UniProt Q86WV6, G230A/H232R/R293Q); assay: Differential Scanning Fluorimetry with AQ STING; type: binding; conditions: thermal shift, truncated human AQ STING 0.1 mg/ml, 150 μM CDN; for ΔTm at 150 µM: read-out: DSF ΔTm AQ STING
T1 construct: truncated human WT STING or AQ STING (amino acid residues 140-343); 8xHis (N, cleaved yes); SUMO (N, cleaved yes); made in house; host or cells: E. coli Rosetta-gami B (DE3)
Method: (§1) Purified PCR products were cleaved with restriction enzymes BamHI (cat. #R0136S, NEB, Ipswich, USA) and NotI (cat. #R0189S, NEB, Ipswich, USA) and cloned into the pSUMO vector linearized with the identical enzymes.
(§2) DNase I (cat. #D5025, Sigma Aldrich, Czech Republic) and RNase A (cat. #R6513, Sigma Aldrich, Czech Republic) were added (final concentration 50 μg/ml) together with MgCl2 (final concentration 5 mmol·l^−1) to the homogenate and bacteria were lysed using French Press G-M™ High-Pressure Cell Press Homogenizer (1500 psi, 3 cycles). […] The resin was poured into a chromatography column, washed with 50 ml buffer A (50 mmol·l^−1 TrisCl (pH 8.0), 800 mmol·l^−1 NaCl, 3 mmol·l^−1 β-mercaptoethanol; 10% glycerol; 20 mmol·l^−1 imidazole) and 8-His-SUMO tagged STING proteins were eluted with 15 ml buffer A containing 300 mmol·l^−1 imidazole. […] Proteins were concentrated with Amicon® Ultra-15 10 K device (cat. #UFC901008, Merck Millipore, Billerica, USA) and flash frozen in liquid N2.
(§3) 20 μL solutions of the reaction mixtures were pipetted in triplicates into 96 well optical reaction plates and thermal denaturation of samples were performed on real time PCR cycler (LightCycler® 480 Instrument II—Roche, Basel, Switzerland). The first derivative of the thermal denaturation curves was performed to calculate denaturing temperatures of STING-CDN complexes and STING apoproteins. The thermal shift for each CDN was calculated by subtracting the average denaturing temperature of STING apoprotein from the average denaturing temperature of STING CDN complex.

WT STING [1] = molecular target: T2, WT STING (Homo sapiens, UniProt Q86WV6, H232R); assay: Digitonin assay using 293T wtSTING-FL reporter cells; type: cell-based; conditions: 293T wtSTING-FL cells, ISRE firefly luciferase reporter, digitonin buffer 30 minutes, then 5 hours
Text: Two complementary oligonucleotides of the sequence […] […] […] […] […] […] […] The oligonucleotides were mixed in equal molar amounts, hybridized, and cleaved by restriction endonucleases HindIII (cat. #. R0104S, NEB, Ipswich, USA) and BglII (cat. #R0144S, NEB, Ipswich, USA). Ultimately, they were ligated into plasmid pGL4.27 (cat. #E6651, Promega, Madison, USA) linearized with the same enzymes. As result the sequence with four ISRE sites was placed upstream of the minimum promoter of firefly luciferase reporter gene.
After 5 minutes incubation at room temperature (RT), 250 μL of the mixture was added dropwise to the cells in one well. Cells were incubated 36 hours at 37° C. with 5% CO2, and then detached with 0.05% Trypsin and 0.22 g/L EDTA (both cat. #L0941, Biowest, Riverside, USA).
Transfected cells were seeded onto poly-D-lysine coated six well plates at density 50,000 cells per 1 cm^2 in DMEM medium with high glucose containing 10% heat inactivated FBS, 30 μg/mL blasticidin (cat. #ant-bl-05, InvivoGen, San Diego, USA), 0.06 mg/ml Penicillin G and 0.1 mg/ml Streptomycin Sulfate (both cat. #. L0018, Biowest, Riverside, USA). The medium was replenished every 3-4 days until visible colonies of cells resistant to blasticidin were formed.
Blasticidin resistant cells stably expressing WT STING were further transfected with pGL64.27-4×ISRE plasmid following the same procedure as described above. […] Homogeneous culture of stably double transfected cells was prepared by limiting dilution of cells in 96 well plates and wells with cells were selected that originated from a single cell.
The medium was removed next day and three fold serial dilutions of compounds in Digitonin buffer containing 50 mmol·l^−1 HEPES (cat. #H3375, Sigma Aldrich, Czech Republic) pH 7.0, 100 mmol·l^−1 KCl, 3 mmol·l^−1 MgCl2, 0.1 mmol·l^−1 DTT (cat. #D0632, Sigma Aldrich, Czech Republic), 85 mmol·l^−1 Sucrose (cat. #S7903, Sigma Aldrich, Česká Republika), 0.2% BSA (cat. #A2153, Sigma Aldrich, Czech Republic), 1 mmol·l^−1 ATP (cat. #A1852, Sigma Aldrich, Czech Republic), 0.1 mmol·l^−1 GTP (cat. #G8877, Sigma Aldrich, Czech Republic), and 10 μg/mL Digitonin A (cat. #D141, Sigma Aldrich, Czech Republic) were added to the cells. The buffer was removed after 30 minutes incubation at 37° C. with 5% CO2, the cells were washed once with 100 μl of cultivation medium, and 100 μl of medium was added to each well. The plates with cells were incubated for 5 hours at 37° C. with 5% CO2, 50 μl of the medium was removed and 30 μl of ONE-Glo™ Luciferase Assay System reagent (cat. #E6120, Promega, Madison, USA) was added to each well. Luminesce was read on Synergy H1 (Biotek, Winooski, USA).
Target sequence in this assay (Q86WV6 whole entry H232R): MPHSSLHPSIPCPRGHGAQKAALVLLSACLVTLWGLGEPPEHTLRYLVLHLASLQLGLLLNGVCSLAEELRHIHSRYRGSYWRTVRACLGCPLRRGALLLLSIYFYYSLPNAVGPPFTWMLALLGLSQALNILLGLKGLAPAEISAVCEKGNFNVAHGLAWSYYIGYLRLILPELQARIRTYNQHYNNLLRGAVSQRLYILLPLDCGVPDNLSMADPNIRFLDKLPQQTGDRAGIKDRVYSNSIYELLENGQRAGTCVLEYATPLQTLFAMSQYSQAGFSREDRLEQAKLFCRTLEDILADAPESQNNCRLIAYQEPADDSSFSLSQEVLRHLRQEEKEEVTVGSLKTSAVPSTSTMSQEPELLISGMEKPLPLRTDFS

WT STING [2] = molecular target: T2, WT STING; assay: Differential Scanning Fluorimetry with WT STING; type: binding; set-up: truncated human WT STING or AQ STING (amino acid residues 140-343); 8xHis (N, cleaved yes); SUMO (N, cleaved yes); made in house; host or cells: E. coli Rosetta-gami B (DE3); conditions: thermal shift, truncated human WT STING 0.1 mg/ml, 150 μM CDN; for ΔTm at 150 µM: read-out: DSF ΔTm WT STING
Method: as §1, §2, §3
Target sequence in this assay (Q86WV6 140-343 H232R): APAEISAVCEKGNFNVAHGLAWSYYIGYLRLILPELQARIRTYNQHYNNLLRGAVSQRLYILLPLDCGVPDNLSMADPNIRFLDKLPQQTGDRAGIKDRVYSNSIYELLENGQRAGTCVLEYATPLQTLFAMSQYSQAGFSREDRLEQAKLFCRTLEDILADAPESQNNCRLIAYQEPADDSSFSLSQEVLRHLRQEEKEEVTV

T1 sequence (Q86WV6 140-343 G230A/H232R/R293Q): as the sequence (Q86WV6 140-343 H232R) above, with G91A, R154Q counted along it

For “2-amino-9-((2R,3R,3aS,7aR,9R,10R,10aS,15aR)-2-(6-amino-9H-purin-9-yl)-3,5,10,13-tetrahydroxy-5,13-dioxidodecahydro-2H-difuro[3,2-d:3′,2′-k][1,3,7,10]tetraoxa[2,8]diphosphacyclotridecin-9-yl)-1,9-dihydro-6H-purin-6-one [Example 2]”, the “DSF ΔTm AQ STING” value (AQ STING (G230A-R293Q)) was 3.3 °C, the EC50 (WT STING [1]) was 10.4 µM and the “DSF ΔTm WT STING” value (WT STING [2]) was 0.1 °C.
Nc1nc2c(ncn2[C@@H]2O[C@@H]3COP(=O)(O)OC4C(O)[C@H](n5cnc6c(N)ncnc65)O[C@@H]4COP(=O)(O)COC3C2F)c(=O)[nH]1 (stereo partly drawn) [Example 11, 2-amino-9-((2R,3R,3aS,7aR,9R,10R,10aR,15aR)-2-(6-amino-9H-purin-9-yl)-10-fluoro-3,5,13-trihydroxy-5,13-dioxidodecahydro-2H-difuro[3,2-d:3′,2′-k][1,3,7,10][tetraoxa][2,8]diphosphacyclotridecin-9-yl)-1,9-dihydro-6H-purin-6-one] gave a ΔTm at 150 µM (AQ STING (G230A-R293Q)) of 11.3 °C, an EC50 (WT STING [1]) of 0.05 µM and a ΔTm at 150 µM (WT STING [2]) of 7.3 °C.
Nc1nc2c(ncn2[C@@H]2O[C@@H]3COP(=O)(O)COC4C(F)[C@H](n5cnc6c(N)ncnc65)O[C@@H]4COP(=O)(O)OC3C2F)c(=O)[nH]1 (stereo partly drawn) [Example 8, 2-amino-9-((2R,3R,3aR,7aR,9R,10R,10aR,15aR)-9-(6-amino-9H-purin-9-yl)-3,10-difluoro-5,13-dihydrox-5,13-diox-idodecahdro-2H-difuro[3,2-d:3′,2′-k][1,3,7,10]tetraoxa[2,8]diphosphacyclotridecin-2-yl)-1,9-dihydro-6H-purin-6-one] showed a ΔTm at 150 µM (AQ STING (G230A-R293Q)) of 18.6 °C, an EC50 (WT STING [1]) of 0.008 µM and a ΔTm at 150 µM (WT STING [2]) of 10.7 °C.
With Nc1nc2c(ncn2[C@H]2CC3OCP(=O)(O)OC[C@H]4O[C@@H](n5cnc6c(N)ncnc65)C(F)C4OP(=O)(O)OC[C@H]3O2)c(=O)[nH]1 (stereo partly drawn) [Example 14, 2-amino-9-((2R,3R,3aR,7aR,9R,10aS,15aR)-2-(6-amino-9H-purin-9-yl)-3-fluoro-5,13-dihydroxy-5,13-dioxidodecahydro-2H-difuro[3,2-d:3′,2′-k][1,3,7,10]tetraoxa[2,8]diphosphacyclotridecin-9-yl)-1,9-dihydro-6H-purin-6-one] the ΔTm at 150 µM (AQ STING (G230A-R293Q)) was 11.2 °C, the EC50 (WT STING [1]) was 0.09 µM and the ΔTm at 150 µM (WT STING [2]) was 3.8 °C.
Compound Nc1ncnc2c1ncn2[C@@H]1O[C@@H]2COP(=O)(O)OC3C(F)[C@H](n4cnc5c(N)ncnc54)O[C@@H]3COP(=O)(O)COC2C1F (stereo partly drawn) [Example 13, (2R,3R,3aR,7aR,9R,10R,10aR,15aR)-2,9-bis(6-amino-9H-purin-9-yl)-3,10-difluoro-5,13-dihydroxydecahydro-2H-difuro[3,2-d:3′,2′-k][1,3,7,10]tetraoxa[2,8]diphosphacyclotridecine 5,13-dioxide] has a ΔTm at 150 µM (AQ STING (G230A-R293Q)) of 16.1 °C, an EC50 (WT STING [1]) of 0.012 µM and a ΔTm at 150 µM (WT STING [2]) of 9.4 °C.
For “2-amino-9-((2R,3aS,7aR,9R,10R,10aR,15aR)-9-(6-amino-9H-purin-9-yl)-10-fluoro-5,13-dihydroxy-5,13-dioxidodecahydro-2H-difuro[3,2-d:3′,2′-k][1,3,7,10]tetraoxa[2,8]diphosphacyclotridecin-2-yl)-1,9-dihydro-6H-purin-6-one [Example 15]”, the “DSF ΔTm AQ STING” value (AQ STING (G230A-R293Q)) was 12.7 °C, the EC50 (WT STING [1]) was 0.11 µM and the “DSF ΔTm WT STING” value (WT STING [2]) was 4.0 °C.
Nc1nc2c(ncn2[C@@H]2O[C@@H]3COP(=O)(O)COC4C(O)[C@H](n5cnc6c(=O)[nH]c(N)nc65)O[C@@H]4COP(=O)(O)COC3C2O)c(=O)[nH]1 (stereo partly drawn) [Example 6, 9,9′-((2R,3R,3aS,8aR,10R,11R,11aS,16aR)-3,6,11,14-tetrahydroxy-6,14-dioxidododecahydrodifuro[3,2-e:3′,2′-l][1,4,8,11]tetraoxa[2,9]diphosphacyclotetradecine-2,10-diyl)bis(2-amino-1,9-dihydro-6H-purin-6-one)] was tested, and the ΔTm at 150 µM (AQ STING (G230A-R293Q)) was 0 °C, the EC50 (WT STING [1]) was greater than 50 µM and the ΔTm at 150 µM (WT STING [2]) was 0.1 °C.
Compound Nc1nc2c(ncn2[C@@H]2O[C@@H]3COP(=O)(O)OC4C(F)[C@H](n5cnc6c(N)ncnc65)O[C@@H]4COP(=O)(O)COC3C2O)c(=O)[nH]1 (stereo partly drawn) [Example 4, 2-amino-9-((2R,3R,3aR,7aR,9R,10R,10aS,15aR)-2-(6-amino-9H-purin-9-yl)-3-fluoro-5,10,13-trihydroxy-5,13-dioxidodecahydro-2H-difuro[3,2-d:3′,2′-k][1,3,7,10]tetraoxa[2,8]diphosphacyclotridecin-9-yl)-1,9-dihydro-6H-purin-6-one] has a ΔTm at 150 µM (AQ STING (G230A-R293Q)) of 13.6 °C, an EC50 (WT STING [1]) of 0.05 µM and a ΔTm at 150 µM (WT STING [2]) of 4.8 °C.
In the case of Nc1nc2c(ncn2[C@@H]2O[C@@H]3COP(=O)(O)OC4C(F)[C@H](n5cnc6c(=O)[nH]c(N)nc65)O[C@@H]4COP(=O)(O)COC3C2F)c(=O)[nH]1 (stereo partly drawn) [Example 16, 9,9′-((2R,3R,3aR,7aR,9R,10R,10aR,15aR)-3,10-difluoro-5,13-dihydroxy-5,13-dioxidodecahydro-2H-difuro[3,2-d:3′,2′-k][1,3,7,10]tetraoxa[2,8]diphosphacyclotridecine-2,9-diyl)bis(2-amino-1,9-dihydro-6H-purin-6-one)], the ΔTm at 150 µM (AQ STING (G230A-R293Q)) is reported as 10.7 °C, the EC50 (WT STING [1]) is reported as 0.3 µM and the ΔTm at 150 µM (WT STING [2]) is reported as 3.1 °C.
For Nc1ncnc2c1ncn2[C@@H]1O[C@@H]2COP(=O)(O)O[C@H]3[C@@H](O)[C@H](n4cnc5c(N)ncnc54)O[C@@H]3COP(=O)(O)O[C@H]2[C@H]1O [3′3′-c-di-AMP, reference compound], the “DSF ΔTm AQ STING” value (AQ STING (G230A-R293Q)) was 9.3 °C, the EC50 (WT STING [1]) was 0.3 µM and the “DSF ΔTm WT STING” value (WT STING [2]) was 2.6 °C.
